#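 Where inhibition never reached the appropriate level, the endpoint shown equals the highest concentration tested. Otherwise, values were interpolated linearly from a five-concentration, 48-hour dose response in 96-well plates. Here, GI50 denotes the concentration required for 50% inhibition of growth.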 Active and inactive are the calls of the source. Rule as the data show it: active = GI50 up to about 1.1 µM and inactive = higher.
# Tests used:
# Experiment in all cases: DTP human tumour cell line panel, 48 h
# [1] = system: NCI/ADR-RES
# [2] = system: OVCAR-5
# [3] = system: T47D
# [4] = system: BT-549
# [5] = system: NCI-H23
# [6] = system: HCT-116
# [7] = system: SNB-75
# [8] = system: SK-MEL-28
# [9] = system: UO-31
# [10] = system: MDA-MB-435
# [11] = system: NCI-H522
# [12] = system: NCI-H226
# [13] = system: OVCAR-8
# [14] = system: MDA-MB-231
# [15] = system: MOLT-4
# [16] = system: SR
# [17] = system: SK-OV-3
# [18] = system: CCRF-CEM
# [19] = system: A549
# [20] = system: ACHN
# [21] = system: EKVX
# [22] = system: 786-0
# [23] = system: NCI-H460
# [24] = system: SF-295
# [25] = system: RPMI-8226
# [26] = system: HT-29
# [27] = system: DU-145
# [28] = system: HCC 2998
# [29] = system: SK-MEL-5
# [30] = system: SK-MEL-2
# [31] = system: Hs-578T
# [32] = system: OVCAR-3
# [33] = system: HOP-62
# [34] = system: A498
# [35] = system: LOX IMVI
# [36] = system: HL-60
# [37] = system: SN12C
# [38] = system: OVCAR-4
# [39] = system: UACC-257
# [40] = system: SW-620
# [41] = system: SF-268
# [42] = system: U-251
# [43] = system: HCT-15
# [44] = system: TK-10
# [45] = system: UACC-62
# [46] = system: CAKI-1
# [47] = system: MDA-N
# [48] = system: IGROV-1
# [49] = system: COLO 205
# [50] = system: KM12
# [51] = system: HOP-92
# [52] = system: M14
# [53] = system: K562
structure (smiles),measurement,setting,value
COC(=O)[C@@H]1CCc2nc3ccccc3c(=O)n21,GI50,[1],> 100 µM (inactive)
same,GI50,[2],> 100 µM (inactive)
same,GI50,[3],> 100 µM (inactive)
same,GI50,[4],> 100 µM (inactive)
same,GI50,[5],> 100 µM (inactive)
same,GI50,[6],> 100 µM (inactive)
same,GI50,[7],> 100 µM (inactive)
same,GI50,[8],> 100 µM (inactive)
same,GI50,[9],> 100 µM (inactive)
same,GI50,[10],> 100 µM (inactive)
same,GI50,[11],> 100 µM (inactive)
same,GI50,[12],93.1 µM (inactive)
same,GI50,[13],> 100 µM (inactive)
same,GI50,[14],> 100 µM (inactive)
same,GI50,[15],> 100 µM (inactive)
same,GI50,[16],> 100 µM (inactive)
same,GI50,[17],> 100 µM (inactive)
same,GI50,[18],> 100 µM (inactive)
same,GI50,[19],> 100 µM (inactive)
same,GI50,[20],> 100 µM (inactive)
same,GI50,[21],> 100 µM (inactive)
same,GI50,[22],> 100 µM (inactive)
same,GI50,[23],> 100 µM (inactive)
same,GI50,[24],> 100 µM (inactive)
same,GI50,[25],> 100 µM (inactive)
same,GI50,[26],> 100 µM (inactive)
same,GI50,[27],> 100 µM (inactive)
same,GI50,[28],> 100 µM (inactive)
same,GI50,[29],> 100 µM (inactive)
same,GI50,[30],> 100 µM (inactive)
same,GI50,[31],> 100 µM (inactive)
same,GI50,[32],> 100 µM (inactive)
same,GI50,[33],> 100 µM (inactive)
same,GI50,[34],> 100 µM (inactive)
same,GI50,[35],> 100 µM (inactive)
same,GI50,[36],> 100 µM (inactive)
same,GI50,[37],> 100 µM (inactive)
same,GI50,[38],> 100 µM (inactive)
same,GI50,[39],> 100 µM (inactive)
same,GI50,[40],> 100 µM (inactive)
same,GI50,[41],> 100 µM (inactive)
same,GI50,[42],> 100 µM (inactive)
same,GI50,[43],> 100 µM
same,GI50,[44],> 100 µM (inactive)
same,GI50,[45],> 100 µM (inactive)
same,GI50,[46],> 100 µM (inactive)
same,GI50,[47],> 100 µM (inactive)
same,GI50,[48],> 100 µM (inactive)
same,GI50,[49],> 100 µM (inactive)
same,GI50,[50],> 100 µM (inactive)
same,GI50,[51],> 100 µM (inactive)
same,GI50,[52],> 100 µM (inactive)
same,GI50,[53],> 100 µM (inactive)

# — ChEMBL document CHEMBL1201862, “PubChem BioAssay data set” (2004)
